The text below walks through data of US20230391772A1, “METHODS AND COMPOSITIONS FOR TARGETED PROTEIN DEGRADATION” (Ranok Therapeutics (Hangzhou) Co. Ltd., priority 2020, published 2023).

For assay [1], the target named is T1, HSP90a protein (Homo sapiens, UniProt P07900).
T1 construct: purchased BPS Bioscience 50298
As to the kind of experiment: HSP90α-binding fluorescent polarization (FP) assay, FITC-geldanamycin probe. Conditions: FP competition with FITC-geldanamycin, 5 nM, 120 min at 25° C. The protocol:
HSP90α-Binding Fluorescent Polarization (FP) Assay
Binding of test compounds to HSP90a protein was measured by fluorescent polarization (FP) using the HSP90a (N-terminal) Assay Kit (BPS Bioscience, #50298), following the manufacturer's instructions, except as noted. Fluorescently labeled HSP90-binding compounds, either the provided FITC-geldanamycin (5 nM final concentration) or RNK04010, a triazolone-based HSP90 binding small molecule labeled with BODIPY through a piperizine-phenyl linker (5 nM final concentration) were employed. A 2.5-fold serial dilution of each test compound ranging from 20 μM to 5.2 nM was assayed for binding to HSP90a. After the final step of adding HSP90a protein to each assay well, plates were mixed by brief shaking, incubated at 25° C. for 120 min for FITC-geldanamycin or 300 min for RNK04010, and fluorescence was measured using a PerkinElmer EnVision Plate Reader.

For assay [2], the system named is NCI-H358 human non-small cell lung cancer. As to the kind of experiment: NCI-H358 CCK-8 proliferation assay. Type of assay: cell-based. Conditions: NCI-H358 cells, 72 hr. The gist of the method:
(§1)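 Proliferation of mutant-KRAS(G12C) cells (2 copies in MIA PaCa-2, single copy in NCI-H358/NCI-H23) measured with CCK-8 after treatment across 20 μM–1.02 nM; inhibition expressed relative to vehicle-treated wells after subtracting no-cell background.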

Assay [3] concerns MIA PaCa-2 human pancreatic carcinoma. As to the kind of experiment: MIA PaCa-2 CCK-8 proliferation assay. Type of assay: cell-based. Conditions: Homo sapiens, MIA PaCa-2, 72 h, MIA PaCa-2 cells. The gist of the method:
as §1
On the technique in general: Tetrazolium dyes change colour on reduction, which living cells bring about.

Assay [4] deals with T1, HSP90a protein. As to the kind of experiment: HSP90α-binding fluorescent polarization (FP) assay, BODIPY-labeled RNK04010 probe. Conditions: FP competition with RNK04010 (BODIPY-labeled), 5 nM, 300 min at 25° C. The method in brief:
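Test compounds (2.5-fold serial dilution, 20 μM to 5.2 nM) competed with a fluorescent tracer for N-terminal HSP90a, with fluorescence polarization as the read-out. FITC-geldanamycin tracer was used at 5 nM final with 120 min incubation at 25° C; BODIPY-labeled RNK04010 was used at 5 nM final with 300 min incubation.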

Turning to `CCC(=O)N1CCN(c2nc(N3CCC(CN4CCN(Cc5ccc(-n6c(O)nnc6-c6cc(CC)c(O)cc6O)cc5)CC4)CC3)nc3c2CCN(c2cccc4cccc(Cl)c24)C3)C[C@@H]1CC#N` [Compound 133, (S)-2-(4-(7-(8-chloronaphthalen-1-yl)-2-(4-((4-(4-(3-(5-ethyl-2,4-dihydroxyphenyl)-5-hydroxy-4H-1,2,4-triazol-4-yl)benzyl)piperazin-1-yl)methyl)piperidin-1-yl)-5,6,7,8-tetrahydropyrido[3,4-d]pyrimidin-4-yl)-1-propionylpiperazin-2-yl)acetonitrile, trifluoroacetic acid], the IC50 (commonly the point on the concentration scale where inhibition reaches its midpoint) in assay [1] was in the range of 100 to 1000 nM. The EC50 (in general, the concentration giving half of the maximal effect) in assay [2] was in the range of 100 to 1000 nM.
For `CCC(=O)N1CCN(c2nc(NCCCNC(=O)C3CCN(Cc4ccc(-n5c(O)nnc5-c5cc(C(C)C)c(O)cc5O)cc4)CC3)nc3c2CCN(c2cccc4cccc(Cl)c24)C3)C[C@@H]1CC#N` [Compound 134, (S)—N-(3-((7-(8-chloronaphthalen-1-yl)-4-(3-(cyanomethyl)-4-propionylpiperazin-1-yl)-5,6,7,8-tetrahydropyrido[3,4-d]pyrimidin-2-yl)amino)propyl)-1-(4-(3-(2,4-dihydroxy-5-isopropylphenyl)-5-hydroxy-4H-1,2,4-triazol-4-yl)benzyl)piperidine-4-carboxamide, trifluoroacetic acid], the IC50 in assay [1] fell in the range of 100 to 1000 nM. In addition, the EC50 in assay [2] is over 1000 nM.
In assay [1], `C=C(F)C(=O)N1CCN(c2nc(N3CCC(CN4CCN(Cc5ccc(-n6c(O)nnc6-c6cc(CC)c(O)cc6O)cc5)CC4)CC3)nc3c2CCN(c2cccc4cccc(Cl)c24)C3)C[C@@H]1CC#N` [Compound 135, (S)-2-(4-(7-(8-chloronaphthalen-1-yl)-2-(4-((4-(4-(3-(5-ethyl-2,4-dihydroxyphenyl)-5-hydroxy-4H-1,2,4-triazol-4-yl)benzyl)piperazin-1-yl)methyl)piperidin-1-yl)-5,6,7,8-tetrahydropyrido[3,4-d]pyrimidin-4-yl)-1-(2-fluoroacryloyl)piperazin-2-yl)acetonitrile] displayed an IC50 of 100 to 1000 nM. Also, in assay [2], the EC50 was over 1000 nM.
In the case of `CC(C)c1cc(-c2nnc(O)n2-c2ccc(CN3CCN(C4CCN(c5nc6c(c(N7CCN(C(=O)C(F)(F)F)[C@@H](CC#N)C7)n5)CCN(c5cccc7cccc(Cl)c57)C6)CC4)CC3)cc2)c(O)cc1O` [Compound 136, (S)-2-(4-(7-(8-chloronaphthalen-1-yl)-2-(4-(4-(4-(3-(2,4-dihydroxy-5-isopropylphenyl)-5-hydroxy-4H-1,2,4-triazol-4-yl)benzyl)piperazin-1-yl)piperidin-1-yl)-5,6,7,8-tetrahydropyrido[3,4-d]pyrimidin-4-yl)-1-(2,2,2-trifluoroacetyl)piperazin-2-yl)acetonitrile], the IC50 in assay [1] is over 1000 nM. In assay [2], this molecule showed an EC50 of 100 to 1000 nM.
Regarding `C=C(F)C(=O)N1CCN(c2nc(N3CCC(CN4CCC(Cc5ccc(-n6c(O)nnc6-c6cc(C(C)C)c(O)cc6O)cc5)CC4)CC3)nc3c2CCN(c2cccc4cccc(Cl)c24)C3)C[C@@H]1CC#N` [Compound 137, (S)-2-(4-(7-(8-chloronaphthalen-1-yl)-2-(4-((4-(4-(3-(2,4-dihydroxy-5-isopropylphenyl)-5-hydroxy-4H-1,2,4-triazol-4-yl)benzyl)piperidin-1-yl)methyl)piperidin-1-yl)-5,6,7,8-tetrahydropyrido[3,4-d]pyrimidin-4-yl)-1-(2-fluoroacryloyl)piperazin-2-yl)acetonitrile, acetic acid], the IC50 in assay [1] fell in the range of 100 to 1000 nM. In addition, the EC50 in assay [2] fell in the range of 100 to 1000 nM.
`C=C(F)C(=O)N1CCN(c2nc(N3CCC(CN4CCN(Cc5ccc(-n6c(C(=O)NCC(F)(F)F)nnc6-c6cc(CC)c(O)cc6O)cc5)CC4)CC3)nc3c2CCN(c2cccc4cccc(Cl)c24)C3)C[C@@H]1CC#N` [Compound 138, (S)-4-(4-((4-((1-(7-(8-chloronaphthalen-1-yl)-4-(3-(cyanomethyl)-4-(2-fluoroacryloyl)piperazin-1-yl)-5,6,7,8-tetrahydropyrido[3,4-d]pyrimidin-2-yl)piperidin-4-yl)methyl)piperazin-1-yl)methyl)phenyl)-5-(5-ethyl-2,4-dihydroxyphenyl)-N-(2,2,2-trifluoroethyl)-4H-1,2,4-triazole-3-carboxamide] yielded an IC50 in assay [1] of over 1000 nM. The molecule also gave an EC50 in assay [2] of over 1000 nM.
Turning to `C=C(F)C(=O)N1CCN(c2nc(OC[C@@H]3CCN(C(=O)C4CCN(Cc5ccc(-n6c(C(N)=O)nnc6-c6cc(C(C)C)c(O)cc6O)cc5)CC4)C3)nc3c2CCN(c2cccc4cccc(Cl)c24)C3)C[C@@H]1CC#N` [Compound 166, 4-(4-((4-((R)-3-(((7-(8-chloronaphthalen-1-yl)-4-((S)-3-(cyanomethyl)-4-(2-fluoroacryloyl)piperazin-1-yl)-5,6,7,8-tetrahydropyrido[3,4-d]pyrimidin-2-yl)oxy)methyl)pyrrolidine-1-carbonyl)piperidin-1-yl)methyl)phenyl)-5-(2,4-dihydroxy-5-isopropylphenyl)-4H-1,2,4-triazole-3-carboxamide], in assay [3], the EC50 is under 100 nM. In addition, the IC50 in assay [1] fell in the range of 100 to 1000 nM.
`C=C(F)C(=O)N1CCN(c2nc(OC[C@@H]3CCN(C(=O)C4CCN(Cc5ccc(-n6c(O)nnc6-c6cc(CC)c(O)cc6O)cc5)CC4)C3)nc3c2CCN(c2cccc4cccc(Cl)c24)C3)C[C@@H]1CC#N` [Compound 167, 2-((S)-4-(7-(8-chloronaphthalen-1-yl)-2-(((R)-1-(1-(4-(3-(5-ethyl-2,4-dihydroxyphenyl)-5-hydroxy-4H-1,2,4-triazol-4-yl)benzyl)piperidine-4-carbonyl)pyrrolidin-3-yl)methoxy)-5,6,7,8-tetrahydropyrido[3,4-d]pyrimidin-4-yl)-1-(2-fluoroacryloyl)piperazin-2-yl)acetonitrile] had an EC50 in assay [3] of 100 to 1000 nM. In assay [1], the IC50 is under 100 nM.
As to `CC(C)c1cc(-c2nnc(O)n2-c2ccc(CN3CCC(C(=O)N4CC[C@@H](COc5nc6c(c(N7CCN(C(N)=O)[C@@H](CC#N)C7)n5)CCN(c5cccc7cccc(Cl)c57)C6)C4)CC3)cc2)c(O)cc1O` [Compound 169, (S)-4-(7-(8-chloronaphthalen-1-yl)-2-(((R)-1-(1-(4-(3-(2,4-dihydroxy-5-isopropylphenyl)-5-hydroxy-4H-1,2,4-triazol-4-yl)benzyl)piperidine-4-carbonyl)pyrrolidin-3-yl)methoxy)-5,6,7,8-tetrahydropyrido[3,4-d]pyrimidin-4-yl)-2-(cyanomethyl)piperazine-1-carboxamide], the EC50 in assay [3] is 100 to 1000 nM. This molecule also had an IC50 in assay [1] of under 100 nM.
In turn, `C=C(F)C(=O)N1CCN(c2nc(OC[C@@H]3CCN(CCCOCCC(=O)NCc4ccc(-n5c(O)nnc5-c5cc(C(C)C)c(O)cc5O)cc4)C3)nc3c2CCN(c2cccc4cccc(Cl)c24)C3)C[C@@H]1CC#N` [Compound 170] returned an EC50 in assay [3] of over 1000 nM. The molecule further came in with an IC50 in assay [1] of 100 to 1000 nM.
On to `C=C(F)C(=O)N1CCN(c2nc(OC[C@@H]3CCN(C(=O)c4cc(C(C)C)c(O)cc4O)C3)nc3c2CCN(c2cccc4cccc(Cl)c24)C3)C[C@@H]1CC#N` [Compound 171, 2-((S)-4-(7-(8-chloronaphthalen-1-yl)-2-(((R)-1-(2,4-dihydroxy-5-isopropylbenzoyl)pyrrolidin-3-yl)methoxy)-5,6,7,8-tetrahydropyrido[3,4-d]pyrimidin-4-yl)-1-(2-fluoroacryloyl)piperazin-2-yl)acetonitrile], for which the EC50 in assay [3] was over 1000 nM. Moreover, the IC50 in assay [1] was over 1000 nM.
`C=CC(=O)N1CCN(c2nc(OC[C@@H]3CCN(C(=O)c4ccc5c(c4)CN(C(=O)c4cc(C(C)C)c(OC)cc4O)C5)C3)nc3c2CCN(c2cccc4cccc(Cl)c24)C3)C[C@@H]1CC#N` [Compound 173, 2-((S)-1-acryloyl-4-(7-(8-chloronaphthalen-1-yl)-2-(((R)-1-(2-(2-hydroxy-5-isopropyl-4-methoxybenzoyl)isoindoline-5-carbonyl)pyrrolidin-3-yl)methoxy)-5,6,7,8-tetrahydropyrido[3,4-d]pyrimidin-4-yl)piperazin-2-yl)acetonitrile] had an EC50 in assay [3] of over 1000 nM. Also, the IC50 in assay [1] and in assay [4] was over 1000 nM throughout.
Regarding `C=C(F)C(=O)N1CCN(c2nc(OC[C@@H]3CCN(C(=O)c4cc(CC)c(O)cc4O)C3)nc3c2CCN(c2cccc4cccc(Cl)c24)C3)C[C@@H]1CC#N` [Compound 174, 2-((S)-4-(7-(8-chloronaphthalen-1-yl)-2-(((R)-1-(5-ethyl-2,4-dihydroxybenzoyl)pyrrolidin-3-yl)methoxy)-5,6,7,8-tetrahydropyrido[3,4-d]pyrimidin-4-yl)-1-(2-fluoroacryloyl)piperazin-2-yl)acetonitrile], in assay [3], the EC50 is over 1000 nM. Moreover, the IC50 in assay [1] and in assay [4] was over 1000 nM throughout.
